In patent EP4768484A1, “HETEROCYCLIC FUSED RING COMPOUND, AND COMPOSITION AND USE THEREOF” (Shenzhen TargetRx, Inc., priority 2023, dated 2025):

Tests used:
Assay type in all cases: cell-based
[1] = target: T1, Ba/F3 BCR-ABL1 I502L (Homo sapiens, UniProt P00519+P11274, I502L); test: Cell growth inhibitory activity assay (CellTiter-Glo), Ba/F3 BCR-ABL1 I502L cells; settings: 72 h, CTG cell viability
T1 construct: BCR (N-terminal fusion partner of the oncoprotein); expressed in transfected cells; host or cells: Ba/F3 (lentiviral transduction, monoclonal line)
Protocol: (§1) In this assay, the Celltiter-Glo (CTG) kit provided by Promega was used, and it is a homogeneous cell viability assay method. The cell viability of cultured cells was measured by quantifying ATP. K562 cells were purchased from Nanjing Kebai, product number CBP60529; Ba/F3 parental cells were purchased from RIKEN BRC, product number RCB0805; other cells containing BCR-ABL1 WT, BCR-ABL1 T315I, BCR-ABL1 T315M, BCR-ABL1 Y253H/E255K, BCR-ABL1 E255V/T3151, BCR-ABL1 A424T, BCR-ABL1 A337V, BCR-ABL1 P465S, BCR-ABL1 V468F, and BCR-ABL1 I502L were all monoclonal engineered cell lines obtained by transducting Ba/F3 parental cells with the lentivirus plasmids containing WT or corresponding mutated BCR-ABL1.
(§2) The steps of cell viability assay are as follows: • a) Cells in logarithmic growth phase were collected. Cell suspension was prepared and the cells were counted. Concentration of the cells was calculated. • b) The cell suspension was diluted to the required concentration and then added to the middle wells of a 96-well plate, and PBS was added to the edge wells. The wells with no cells and only culture medium were used as blank controls. • c) In addition to the cell plate used for compound analysis, another 96-well plate was prepared as a T0 plate, and 3-6 blank wells and 3-6 cell wells were added. The next day, CTG was used to test the cell viability as the T0 viability value of the cells. • d) The cell plate was incubated at 37 °C in a 5% CO2 incubator overnight. • e) The next day, each concentration of a compound subjected to a gradient dilution was added, and the cell plate was incubated at 37 °C in a 5% CO2 incubator for 72 h. The wells with no compound and only 0.5% DMSO were used as positive controls for cell growth. • f) CTG reagent (CellTiter-Glo kit) was added according to the manufacturer's instructions to test the cell viability value. • g) The plate was read using Biotek cytation3.0 microplate reader and the data were exported. • h) IC50 was calculated using GraphPad Prism 7.0 software.
(§3) The IC50 (half-maximal inhibitory concentration) of the compound was obtained using the following nonlinear fitting formula: Y = Bottom + (Top−Bottom)/(1+10^(∧)((LogIC50−X)*HillSlope)) [formula] • X: Log value of the compound concentration • Y: Inhibition rate (% inhibition) • Top: Maximum response • Bottom: Baseline response • HillSlope: Slope of the curve
(§4) The formula for calculating cell inhibition rate (inhibition rate %) was: [formula]

[2] = target: T2, Ba/F3 BCR-ABL1 Y253H/E255K (Homo sapiens, UniProt P00519+P11274, E255K/Y253H); test: Cell growth inhibitory activity assay (CellTiter-Glo), Ba/F3 BCR-ABL1 Y253H/E255K cells; settings: 72 h, CTG cell viability
T2 construct: BCR (N-terminal fusion partner of the oncoprotein); expressed in transfected cells; host or cells: Ba/F3 (lentiviral transduction, monoclonal line)
Protocol: as §1, §2, §3, §4

[3] = target: T3, Ba/F3 BCR-ABL1 T315M (Homo sapiens, UniProt P00519+P11274, T315M); test: Cell growth inhibitory activity assay (CellTiter-Glo), Ba/F3 BCR-ABL1 T315M cells; settings: 72 h, CTG cell viability
T3 construct: BCR (N-terminal fusion partner of the oncoprotein); expressed in transfected cells; host or cells: Ba/F3 (lentiviral transduction, monoclonal line)
Outline: (§5)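 Growth inhibition is measured in engineered Ba/F3 cells carrying mutant human BCR-ABL1 and in parental Ba/F3. Compounds in dilution series are applied for 72 h, then cellular ATP is quantified with CellTiter-Glo, normalised using a T0 baseline plate, and IC50 derived by nonlinear regression.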

[4] = target: T4, Ba/F3 BCR-ABL1 P465S (Homo sapiens, UniProt P00519+P11274, P465S); test: Cell growth inhibitory activity assay (CellTiter-Glo), Ba/F3 BCR-ABL1 P465S cells; settings: 72 h, CTG cell viability
T4 construct: BCR (N-terminal fusion partner of the oncoprotein); expressed in transfected cells; host or cells: Ba/F3 (lentiviral transduction, monoclonal line)
Protocol: as §1, §2, §3, §4

[5] = target: T5, Ba/F3 BCR-ABL1 A424T (Homo sapiens, UniProt P00519+P11274, A424T); test: Cell growth inhibitory activity assay (CellTiter-Glo), Ba/F3 BCR-ABL1 A424T cells; settings: 72 h, CTG cell viability
T5 construct: BCR (N-terminal fusion partner of the oncoprotein); expressed in transfected cells; host or cells: Ba/F3 (lentiviral transduction, monoclonal line)
Protocol: as §1, §2, §3, §4

[6] = tested on: K562 cells; test: Cell growth inhibitory activity assay (CellTiter-Glo), K562 cells; settings: Homo sapiens, 72 h, CTG cell viability
Outline: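 Growth inhibition of human K562 cells, sourced from Nanjing Kebai (CBP60529), was assessed with Promega's CellTiter-Glo kit, which measures viability through ATP quantification. Log-phase cells went into the inner wells of 96-well plates, with PBS in edge wells, incubated overnight at 37 °C and 5% CO2, then exposed to serially diluted compound for 72 h.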

[7] = target: T6, Ba/F3 BCR-ABL1 T315I (Homo sapiens, UniProt P00519+P11274, T315I); test: Cell growth inhibitory activity assay (CellTiter-Glo), Ba/F3 BCR-ABL1 T315I cells; settings: 72 h, CTG cell viability
T6 construct: BCR (N-terminal fusion partner of the oncoprotein); expressed in transfected cells; host or cells: Ba/F3 (lentiviral transduction, monoclonal line)
Outline: as §5

[8] = target: T7, Ba/F3 BCR-ABL1 A337V (Homo sapiens, UniProt P00519+P11274, A337V); test: Cell growth inhibitory activity assay (CellTiter-Glo), Ba/F3 BCR-ABL1 A337V cells; settings: 72 h, CTG cell viability
T7 construct: BCR (N-terminal fusion partner of the oncoprotein); expressed in transfected cells; host or cells: Ba/F3 (lentiviral transduction, monoclonal line)
Protocol: as §1, §2, §3, §4

[9] = tested on: Ba/F3 parental cells; test: Cell growth inhibitory activity assay (CellTiter-Glo), Ba/F3 parental cells; settings: Mus musculus, BaF3, 72 h, CTG cell viability, read-out: IC50 Ba/F3 BCR-ABL1 Parental
Outline: as §5

[10] = target: T8, Ba/F3 BCR-ABL1 WT (Homo sapiens, UniProt P00519+P11274); test: Cell growth inhibitory activity assay (CellTiter-Glo), Ba/F3 BCR-ABL1 WT cells; settings: 72 h, CTG cell viability
T8 construct: BCR (N-terminal fusion partner of the oncoprotein); expressed in transfected cells; host or cells: Ba/F3 (lentiviral transduction, monoclonal line)
Outline: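 Compound dilutions applied for 72 h (37 °C, 5% CO2) to overnight-plated Ba/F3 cells, parental or engineered to express WT/mutant BCR-ABL1. ATP-based CellTiter-Glo luminescence read, referenced to day-0 viability and 0.5% DMSO wells; IC50 fitted by four-parameter logistic curve.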

[11] = target: T9, Ba/F3 BCR-ABL1 E255V/T315I (Homo sapiens, UniProt P00519+P11274, E255V/T315I); test: Cell growth inhibitory activity assay (CellTiter-Glo), Ba/F3 BCR-ABL1 E255V/T315I cells; settings: 72 h, CTG cell viability
T9 construct: BCR (N-terminal fusion partner of the oncoprotein); expressed in transfected cells; host or cells: Ba/F3 (lentiviral transduction, monoclonal line)
Protocol: as §1, §2, §3, §4

[12] = target: T10, Ba/F3 BCR-ABL1 V468F (Homo sapiens, UniProt P00519+P11274, V468F); test: Cell growth inhibitory activity assay (CellTiter-Glo), Ba/F3 BCR-ABL1 V468F cells; settings: 72 h, CTG cell viability
T10 construct: BCR (N-terminal fusion partner of the oncoprotein); expressed in transfected cells; host or cells: Ba/F3 (lentiviral transduction, monoclonal line)
Protocol: as §1, §2, §3, §4

SMILES | IC50 [6] | IC50 [1] | IC50 [2] | IC50 [3] | IC50 [4] | IC50 [5] | IC50 [7] | IC50 [8] | IC50 [9] | IC50 [10] | IC50 [11] | IC50 [12]
C[C@@H]1COCc2nc3cc(C(=O)Nc4ccc(OC(F)(F)Cl)cc4)cc(-c4cnc5c(c4)-c4nn(-c6nccc(C#N)n6)cc4C5)c3n21 [T-69-B, (R)-N-(4-(chlorodifluoromethoxy)phenyl)-6-(2-(4-cyanopyrimidin-2-yl)-2,4-dihydropyrazolo[3',4':3,4]cyclopenta[1,2-b]pyridin-7-yl)-4-methyl-3,4-dihydro-1H-benzo[4,5]imidazo[2,1-c][1,4]oxazine-8-carboxamide] | ≤ 0.005 µM | ≤ 0.005 µM | 0.005 to 0.05 µM | ≤ 0.005 µM | 0.05 to 1 µM | 0.005 to 0.05 µM | ≤ 0.005 µM | 0.05 to 1 µM | > 1 µM | ≤ 0.005 µM | ≤ 0.005 µM | 0.05 to 1 µM
C[C@@H]1CCSc2nc3cc(C(=O)Nc4ccc(OC(F)(F)Cl)cc4)cc(-c4cnc5c(c4)C(=O)N(C)C5)c3n21 [T-20, (R)-N-(4-(chlorodifluoromethoxy)phenyl)-4-methyl-6-(6-methyl-5-oxo-6,7-dihydro-5H-pyrrolo[3,4-b]pyridin-3-yl)-3,4-dihydro-2H-benzo[4,5]imidazo[2,1-b][1,3]thiazine-8-carboxamide] | ≤ 0.005 µM | 0.005 to 0.05 µM | 0.05 to 1 µM | > 1 µM | 0.05 to 1 µM | 0.05 to 1 µM | 0.005 to 0.05 µM | 0.05 to 1 µM | > 1 µM | ≤ 0.005 µM | 0.005 to 0.05 µM | 0.05 to 1 µM
C[C@@H]1COCc2nc3cc(C(=O)Nc4ccc(OC(F)(F)Cl)cc4)cc(-c4cnc5c(c4)-c4c(cnn4-c4nccc(C#N)n4)C5)c3n21 [T-69-A, (R)-N-(4-(chlorodifluoromethoxy)phenyl)-6-(1-(4-cyanopyrimidin-2-yl)-1,4-dihydropyrazolo[3',4':3,4]cyclopenta[1,2-b]pyridin-7-yl)-4-methyl-3,4-dihydro-1H-benzo[4,5]imidazo[2,1-c][1,4]oxazine-8-carboxamide] | ≤ 0.005 µM | 0.05 to 1 µM | 0.005 to 0.05 µM | 0.05 to 1 µM | 0.05 to 1 µM | 0.05 to 1 µM | 0.005 to 0.05 µM | 0.05 to 1 µM | > 1 µM | ≤ 0.005 µM | 0.005 to 0.05 µM | > 1 µM

More lines, main results first:

IC50 [6] | SMILES | IC50 [1] | IC50 [2] | IC50 [3] | IC50 [4] | IC50 [5] | IC50 [7] | IC50 [8] | IC50 [9] | IC50 [10] | IC50 [11] | IC50 [12]
≤ 0.005 µM | C[C@@H]1COCc2nc3cc(C(=O)Nc4ccc(OC(F)(F)Cl)cc4)cc(-c4cnc5c(c4)-c4nn(-c6ncccn6)cc4C5)c3n21 [T-65] | ≤ 0.005 µM | ≤ 0.005 µM | ≤ 0.005 µM | 0.005 to 0.05 µM | ≤ 0.005 µM | ≤ 0.005 µM | ≤ 0.005 µM | > 1 µM | ≤ 0.005 µM | ≤ 0.005 µM | 0.005 to 0.05 µM
≤ 0.005 µM | Cc1cc(C)nc(-n2cc3c(n2)-c2cc(-c4cc(C(=O)Nc5ccc(OC(F)(F)Cl)cc5)cc5nc6n(c45)[C@H](C)COC6)cnc2C3)n1 [T-76, (R)-N-(4-(chlorodifluoromethoxy)phenyl)-6-(2-(4,6-dimethylpyrimidin-2-yl)-2,4-dihydropyrazolo[3',4':3,4]cyclopenta[1,2-b]pyridin-7-yl)-4-methyl-3,4-dihydro-1H-benzo[4,5]imidazo[2,1-c][1,4]oxazine-8-carboxamide] | 0.005 to 0.05 µM | ≤ 0.005 µM | ≤ 0.005 µM | 0.05 to 1 µM | ≤ 0.005 µM | ≤ 0.005 µM | 0.05 to 1 µM | > 1 µM | ≤ 0.005 µM | ≤ 0.005 µM | 0.05 to 1 µM
